Measured values taken from patent publication EP0595557A1, “New substituted azetidinones as anti-inflammatory and antidegenerative agents” (MERCK & CO. INC., priority 1992, dated 1994).

Biological target: T1, Human Polymorphonuclear Leukocyte Elastase (Homo sapiens, UniProt P08246)
T1 construct: Crude extract of human polymorphonuclear leukocytes (PMN) containing elastase activity; from tissue; host or cells: human polymorphonuclear leukocytes (crude extract)
T1 sequence (P08246 30-267): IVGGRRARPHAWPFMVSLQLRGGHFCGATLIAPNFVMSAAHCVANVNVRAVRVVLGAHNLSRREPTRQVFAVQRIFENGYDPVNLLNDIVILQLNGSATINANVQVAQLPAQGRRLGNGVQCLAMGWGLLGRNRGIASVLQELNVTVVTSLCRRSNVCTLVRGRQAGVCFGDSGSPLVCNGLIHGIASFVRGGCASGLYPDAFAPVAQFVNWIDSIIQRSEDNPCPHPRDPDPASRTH
Assay: Enzyme assay for inhibition of human polymorphonuclear leukocyte elastase via hydrolysis of Boc-AAPAN or Boc-AAPVN
Assay type: biochemical
Conditions: pH 7.5, second order rate constant for inactivation of the enzyme, expressed to the nearest thousand, read-out: Kobs/[I]
Summary of the method: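 Crude human PMN extract as enzyme source, with 0.2 mM Boc-AAPAN in 0.05M TES buffer pH 7.5. Inhibitors in DMSO were added to substrate before the extract, and rate was followed as ΔOD/min at 410 mµ. Values are kobs/I, the second-order inactivation rate constant (per mole per second).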

| Structure (SMILES) | kinact/KI [M⁻¹ s⁻¹] |
| --- | --- |
| CCC[C@@H](NC(=O)N1C(=O)C(CC)(CC)[C@@H]1Oc1ccc(C(=O)N(C)CCN2CCNCC2)cc1)c1ccc(C)cc1 [Compound 151] | 1.19e+06 |
| CCC[C@@H](NC(=O)N1C(=O)C(CC)(CC)[C@@H]1Oc1ccc(C(=O)N2CCCNCC2)cc1)c1ccc(C)cc1 [Compound 152] | 1.95e+06 |
| CCC[C@@H](NC(=O)N1C(=O)C(CC)(CC)[C@@H]1Oc1ccc(C(=O)N2CCC[C@@H]2CN2CCCC2)cc1)c1ccc(C)cc1 [Compound 154] | 1.67e+06 |
| CCC[C@@H](NC(=O)N1C(=O)C(CC)(CC)[C@@H]1Oc1ccc(C(=O)N2CCCN(Cc3ccccc3)CC2)cc1)c1ccc(C)cc1 [Compound 155] | 1.98e+06 |
| CCC[C@@H](NC(=O)N1C(=O)C(CC)(CC)[C@@H]1Oc1ccc(C(=O)N(C)CC(O)C(O)C(O)C(O)CO)cc1)c1ccc(C)cc1 (stereo partly shown) [Compound 156] | 1.2e+06 |
| CCC[C@@H](NC(=O)N1C(=O)C(CC)(CC)[C@@H]1Oc1ccc(C(=O)N(C)CC(OC(C)=O)C(OC(C)=O)C(OC(C)=O)C(COC(C)=O)OC(C)=O)cc1)c1ccc(C)cc1 (stereo partly shown) [Compound 157] | 1.17e+06 |
| CCC[C@@H](NC(=O)N1C(=O)C(CC)(CC)[C@@H]1Oc1ccc(C(=O)NC2CCCN(CC)C2)cc1)c1ccc(C)cc1 (stereo partly shown) [Compound 162] | 949000 |
| CCC[C@@H](NC(=O)N1C(=O)C(CC)(CC)[C@@H]1Oc1ccc(C(=O)N(C)CCOC(=O)N(C)C)cc1)c1ccc(C)cc1 [Compound 170] | 1.52e+06 |
| CCC[C@@H](NC(=O)N1C(=O)C(CC)(CC)[C@@H]1Oc1ccc(C(=O)N(C)C2CCCN(CC)C2)cc1)c1ccc(C)cc1 (stereo partly shown) [Compound 172] | 1.54e+06 |
| CCC[C@@H](NC(=O)N1C(=O)C(CC)(CC)[C@@H]1Oc1ccc(C(=O)N(C)CCN(C)CC2CCCCO2)cc1)c1ccc(C)cc1 (stereo partly shown) [Compound 173] | 2.94e+06 |

The remaining lines, values ahead:

| kinact/KI [M⁻¹ s⁻¹] | Structure (SMILES) |
| --- | --- |
| 2.16e+06 | CCC[C@@H](NC(=O)N1C(=O)C(CC)(CC)[C@@H]1Oc1ccc(C(=O)N(C)CCN(C)Cc2ccccn2)cc1)c1ccc(C)cc1 [Compound 150] |
| 2.8e+06 | CCC[C@@H](NC(=O)N1C(=O)C(CC)(CC)[C@@H]1Oc1ccc(C(=O)N(C)CCN(C)CCc2ccccc2)cc1)c1ccc(C)cc1 [Compound 153] |
| 1.08e+06 | CCC[C@@H](NC(=O)N1C(=O)C(CC)(CC)[C@@H]1Oc1ccc(C(=O)N(C)CCN(C)Cc2cccc3ccccc23)cc1)c1ccc(C)cc1 [Compound 158] |
| 1.02e+06 | CCC[C@@H](NC(=O)N1C(=O)C(CC)(CC)[C@@H]1Oc1ccc(C(=O)N(C)CCN(Cc2ccccc2)Cc2ccccc2)cc1)c1ccc(C)cc1 [Compound 161] |
| 1.82e+06 | CCC[C@@H](NC(=O)N1C(=O)C(CC)(CC)[C@@H]1Oc1ccc(C(=O)N(C)CCN(C)Cc2ccco2)cc1)c1ccc(C)cc1 [Compound 163] |
| 1.06e+06 | CCC[C@@H](NC(=O)N1C(=O)C(CC)(CC)[C@@H]1Oc1ccc(C(=O)N(C)CCCC(=O)O)cc1)c1ccc(C)cc1 [Compound 164] |
| 1.55e+06 | CCC[C@@H](NC(=O)N1C(=O)C(CC)(CC)[C@@H]1Oc1ccc(C(=O)N(C)CCCC(=O)NS(=O)(=O)c2ccccc2)cc1)c1ccc(C)cc1 [Compound 165] |
| 1.36e+06 | C=CCN(C)CCN(C)C(=O)c1ccc(O[C@@H]2N(C(=O)N[C@H](CCC)c3ccc(C)cc3)C(=O)C2(CC)CC)cc1 [Compound 166] |
| 1.29e+06 | CCC[C@@H](NC(=O)N1C(=O)C(CC)(CC)[C@@H]1Oc1ccc(C(=O)N(C)CCCN(C)Cc2ccccc2)cc1)c1ccc(C)cc1 [Compound 167] |
| 2.16e+06 | CCC[C@@H](NC(=O)N1C(=O)C(CC)(CC)[C@@H]1Oc1ccc(C(=O)N(C)CCCCCCN(C)Cc2ccccc2)cc1)c1ccc(C)cc1 [Compound 168] |
| 1.46e+06 | CCC[C@@H](NC(=O)N1C(=O)C(CC)(CC)[C@@H]1Oc1ccc(C(=O)N(C)CCO)cc1)c1ccc(C)cc1 [Compound 169] |
| 1.83e+06 | CCC[C@@H](NC(=O)N1C(=O)C(CC)(CC)[C@@H]1Oc1ccc(C(=O)N(C)CCN(C)CC(=O)OC(C)(C)C)cc1)c1ccc(C)cc1 [Compound 171] |
